The test system of data set [1] is Rituximab-coated CD20+ Jeko-1 (mantle cell lymphoma) cells. Briefly: ADCC assay: NK cell-mediated killing of Rituximab-coated CD20+ Jeko-1 cells. It counts as cell-based, human. The method, then: (§1) Preparation of NK cells: Purified NK cells (5×10^4) were seeded in 96-well U-bottom plates in 100 μL of 10% RPMI-1640 medium, supplemented with human AB+ serum. […] The cells were then incubated at 37° C. overnight.
(§2) Preparation of Rituximab-coated target cancer cells: Various NHL cell lines (Namalwa, Raji, Farage, and Jeko-1) were treated with 20 μg/mL Rituximab (Rituximab, Genentech, Inc.) for 30 minutes at 37° C. Excess unbound Rituximab was then removed by a washing step.
[…] The cells were then co-incubated for 4 hours at 37° C.
(§3) Cytotoxicity analysis: NK cell cytotoxicity against the tumor cell lines was analyzed using a standard lactate dehydrogenase release assay (CytoTox 96 Non-radioactive Cytotoxicity Assay, Promega) to measure ADCC in a 50 μL aliquot of supernatant. The experimental release was corrected by subtraction of the spontaneous release of effector cells at the corresponding dilution. Spontaneous release from target cells alone was <15% of the maximum release as determined with target cells lysed in 1% Triton X-100.
(§4) Determination of effector: target ratio: Specific lysis for each effector-to-target (E:T) cell ratio was calculated using the following formula: % specific lysis=([experimental release−spontaneous release]/[maximum release−spontaneous release])×100.

Data set [2] relates to Rituximab-coated CD20+ Raji cells. Briefly: Monocyte-mediated lysis (ADCC) of Rituximab-coated Raji cells. The class given is cell-based, human. On the procedure:
NK cells and monocytes were isolated from fresh, buffy-coated, whole blood by 30-minute incubation with RossetteSep cocktail (StemCell Technologies, Inc.) followed by Ficoll-Hypaque density gradient centrifugation. CD56+ NK cells were isolated to ˜85% purity and CD14+ monocytes were isolated to ˜80% purity as determined by flow cytometry.
as §2, §3, §4
To evaluate monocyte ADCC, similar methods were used to prepare the monocytes.

Data set [3] has as its system Rituximab-coated Raji cells. Briefly: ADCC assay: NK cell specific lysis of Rituximab-coated Raji cells. It counts as cell-based, human. The method, then:
as §1, §2
Addition of Rituximab-coated target cells to NK cells: The Rituximab-coated target cells (5×103/100 μL/well) were added to the pretreated effector NK cells at a ratio of 10:1. The cells were then co-incubated for 4 hours at 37° C.
as §3, §4
Enhancement of NK cell cytotoxicity by immunomodulatory compounds lenalidomide and pomalidomide was assessed following procedures substantially similar to those described in Section 6.3, above.

Another data set has as its system Fas-L. Briefly: Fas-L expression on CD56+ NK cells (flow cytometry). It counts as cell-based, human. Conditions: FIG. 12. The method, then: Cytometry was undertaken on 50 μL samples containing 1×10^6 cells/mL in washing buffer, 2% FBS with 0.1% NaN3 in PBS. Fluorochrome-conjugated antibodies, unconjugated antibodies, and isotype control mAb were obtained from PharMingen (San Diego, Calif.). The cells were stained with anti-CD56-PE, anti-FasL-FITC or isotype control mAb (1 μg/10^6 cells), and analyzed by flow cytometry according to the manufacturer's instructions.

Data set [4] deals with Src homology-2 containing inositol 5′-phosphatase 1 (phospho-SHIP-1). Description: Immunoblot analysis of phospho-SHIP-1. Conditions: IL-12 plus IgG; lenalidomide 10 μM. It counts as cell-based. On the procedure: (§5) FIG. 7 is a panel of bar graphs showing the quantitation of an immunoblot comparison of cells treated with either IL-12 alone, IgG alone, IL-12 plus IgG, or IL-12 plus IgG plus lenalidomide (at 0.1 μM to 10 μM).
SHIP-1 is a negative regulator of cell proliferation, survival, and activation and also a negative regulator of Fc-γ and cytokine receptor-mediated signaling (Parihar et al., 2005, Cancer Res. 65:9099-9107). The inhibition of phospho-SHIP-1 increases IFN-γ release following NK cell stimulation with IgG and IL-12 (Parihar et al., 2005, Cancer Res. 65:9099-9107, which is incorporated by reference herein in its entirety) and thus may contribute to the mechanism of action of lenalidomide.
On the technique in general: In western blotting, separated proteins are transferred to a membrane and probed.

The subject of a further data set is pPLC-γ2. Briefly: Immunoblot analysis of pPLC-γ2. It counts as cell-based. Particulars: IL-12 plus IgG. On the procedure:
as §5
(§6) Additionally, administration of the immunomodulatory compound lenalidomide was capable of increasing both pPLC-γ2 and pERK levels (FIGS. 7B and 7C). Increase in the levels of these proteins were also observed in connection with pomalidomide (FIGS. 13A and 13B). PLC-γ2 is involved in the maturation and activation of NK cells and triggers the release of lytic granules (Regunathan et al., 2006, Jour. Immunol 175:749-754, which is incorporated by reference herein in its entirety). PLC-γ2 also induces IFN-γ production and is necessary for cytotoxicity and chemokine production.

The next data set concerns pERK. Description: Immunoblot analysis of pERK. Conditions: IL-12 plus IgG. The class given is cell-based. The method, then:
as §5, §6

In data set [5] the test system is Trastuzumab-coated SK-BR-3 cells. Description: NK cell cytotoxicity against Trastuzumab-coated SK-BR-3 cells. The class given is cell-based, human.
Data set [6] relates to Cetuximab-coated HCT-116 cells. Briefly: NK cell cytotoxicity against Cetuximab-coated HCT-116 cells. Particulars: presence of IL-2. It counts as cell-based, human.
A further data set concerns NK cells. Briefly: NK cell chemokine/cytokine production in response to Trastuzumab-coated SK-BR3 cells. The class given is cell-based, human. On the procedure:
As shown herein, immunomodulatory compounds, either alone or in combination with other agents, can alter the expression of several growth factors.
The effects of immunomodulatory compounds lenalidomide and pomalidomide on NK cell chemokine/cytokine production in response to Trastuzumab-coated SK-BR3 cells were assessed using procedures substantially similar to those described in Section 6.6., above.

The subject of the next data set is granzyme B. Description: NK cell granzyme B production. Particulars: inhibitor 40 μM/mL added 1 hour prior to lenalidomide and IL-2. The class given is cell-based, human. The method, then:
(§7) To determine whether lenalidomide enhances IFN-γ production, the following assay was performed. Human IgG (Sigma), at a concentration of 100 μg/mL was coated onto 96-well, flat-bottom plates at 4° C. overnight. The unbound IgG was then washed away. […] Lenalidomide (Revlimid®, Celgene Corporation, Summit, N.J.) was added to the wells in the concentration range of 0.008-5 μM. After a 48-hour incubation, the supernatants were harvested and interferon-gamma (IFN-γ), as well as granzyme B and perforin levels were measured.

The next data set has as its system perforin. Briefly: NK cell perforin production. It counts as cell-based, human. Conditions: inhibitor 40 μM/mL added 1 hour prior to lenalidomide and IL-2. On the procedure: as §7
Data set [7] relates to Rituximab-treated target cells. Description: ADCC in the presence of anti-Fas-L or granzyme inhibitor. The class given is cell-based. Conditions: lenalidomide plus Rituximab. An excerpt: Lenalidomide addition had no effect on perforin production, however (FIGS. 6B and 6C).
Setting [8] is: presence of immobilized IgG and IL-2.

Peptide text beside a SMILES is read from it.

Take “Rituximab: anti-CD20 antibody Rituximab (Rituxan®)”: the NK cell-mediated killing in data set [1] (Rituximab-coated cells without lenalidomide, E:T 50:1) is listed as 70%. For the same molecule, the “increase in tumor cell killing above background” value in [1] (single agent, background killing=40%) is on record as “approximately 30%”. In data set [2] (Rituximab-coated cells, no immunomodulatory compound, E:T 50:1), this molecule came in with a maximum killing activity of about 30%.

In the case of `Nc1cccc2c1C(=O)N(C1CCC(=O)NC1=O)C2=O` (stereo not drawn) [pomalidomide, 1,3-dioxo-2-(2,6-dioxopiperidin-3-yl)-4-aminoisoindoline], the NK cell cytotoxicity result in data set [3] (presence of IL-2 (FIG. 8B/9B)) was “significantly increases”. Further, the NK cell cytotoxicity entry in data set [3] (presence of IL-12 (FIG. 8E/9E)) is listed as “significantly increases”. Besides, in [2] (data not shown), the monocyte-mediated lysis result is given as “enhance”. For the same molecule, in the data set with Fas-L, the “NK cell Fas-L expression, results compared with lenalidomide” value is listed as “similar”. Moreover, the “levels of phospho-SHIP-1” value in [4] was “decreased”. The pPLC-γ2 levels result in the data set on pPLC-γ2 was “Increase”. Moreover, in the data set on pERK, the pERK levels result is reported as “Increase”. Besides, in [5] (presence of IL-2), the NK cell cytotoxicity entry was “significantly increases”. The NK cell cytotoxicity entry in data set [5] (presence of IL-12) is “significantly increases”. The NK cell cytotoxicity result in [6] is listed as “significantly increases”. The “production of any chemokines/cytokines” value with NK cells (compound alone) was “did not induce”. In the data set with NK cells (setting [8]), the “production of GM-CSF” value was “dose-dependently enhanced”, the “production of IL-8” value is given as “dose-dependently enhanced”, the “production of IP-10” value is “dose-dependently enhanced” and the “production of MCP-1” value was “dose-dependently enhanced”. Moreover, in the data set on NK cells (setting [8]), the “production of MIP-1α” value is listed as “dose-dependently enhanced”, the “production of MIP-1β” value is recorded as “not” and the “production of RANTES” value was “dose-dependently enhanced”.

On to `CC[C@H](C)[C@H](NC(C)=O)C(=O)N[C@@H](CCC(=O)O)C(=O)N[C@H](C(=O)N[C@H](C=O)CC(=O)O)[C@@H](C)O` [granzyme B inhibitor II] (Ac-IETD-aldehyde), for which, in the data set on granzyme B, the “effect on IL-2 stimulated granzyme B production” value is recorded as “abrogated”. Besides, in the data set with perforin, the “effect on IL-2-stimulated perforin production” value was “inactive”. The “prevention of ADCC” value in data set [7] is given as “totally prevented”.

For the origin of these results see patent US20100098657A1, “Method of Treating Cancer with Immunomodulatory Compounds and IgG” (priority 2007, published 2010).
